The structures appear in SMILES notation. Read-outs that look alike come from different tables or passages of the source.

The values that follow come from patent publication US7713971B2, “1,2,4-triazine derivatives, preparation and use thereof in human therapy” (Pierre Fabre Medicament, priority 2005, dated 2010).

The target in one assay is T1, human PPARα (Homo sapiens, UniProt Q07869).
T1 construct: expressed in transfected cells; host or cells: Cos-7 cells (ATCC, CRL-1651)
T1 sequence (Q07869 239-466 limits assumed): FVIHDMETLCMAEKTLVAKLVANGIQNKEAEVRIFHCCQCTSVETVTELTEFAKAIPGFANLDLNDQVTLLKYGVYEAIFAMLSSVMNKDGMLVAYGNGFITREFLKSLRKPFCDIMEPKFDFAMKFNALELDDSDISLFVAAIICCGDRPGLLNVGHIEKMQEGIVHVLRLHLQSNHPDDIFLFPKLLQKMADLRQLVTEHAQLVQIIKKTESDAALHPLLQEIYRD
Nature of the assay: Reporter gene transactivation, hPPAR-GAL4 alpha. It counts as cell-based. The note with it: transfected Cos-7 cells, Gal-4 luciferase reporter, 24 hours treatment.

A further assay has as its target T2, human PPARγ (Homo sapiens, UniProt P37231).
T2 construct: expressed in transfected cells; host or cells: Cos-7 cells (ATCC, CRL-1651)
T2 sequence (P37231 238-503 limits assumed): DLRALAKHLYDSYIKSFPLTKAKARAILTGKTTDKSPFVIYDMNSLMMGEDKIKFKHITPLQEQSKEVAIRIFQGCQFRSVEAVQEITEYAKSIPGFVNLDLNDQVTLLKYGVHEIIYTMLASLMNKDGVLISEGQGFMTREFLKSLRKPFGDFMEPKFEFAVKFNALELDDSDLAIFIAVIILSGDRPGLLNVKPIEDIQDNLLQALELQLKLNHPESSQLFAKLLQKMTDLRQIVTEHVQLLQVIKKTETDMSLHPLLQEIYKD
Nature of the assay: Reporter gene transactivation, hPPAR-GAL4 gamma. It counts as cell-based. The following applies: transfected Cos-7 cells, Gal-4 luciferase reporter, 24 hours treatment.

For assay [1], the system named is insulin-resistant male rat (Ico: ZUCKER-fa/fa). Nature of the assay: Normalization of metabolic parameters (cholesterol, plasma triglycerides) in insulin-resistant rat. The note with it: oral route, once per day for four days, Zucker fa/fa rat unfed 16-18 hours; for change in vivo at 2.5 mg/kg / change in vivo at 10 mg/kg: 96 h. It counts as in vivo. As to the method:
Normalization of metabolic parameters (cholesterol, plasma triglycerides) in an insulin-resistant male rat (Ico: ZUCKER-fa/fa), unfed for 16-18 hours, after treatment by oral route, once per day for four days, with the compounds to be evaluated or their administration vehicle.
These metabolic parameters are measured by spectrophotometry at the beginning and the end of each animal's treatment.

The mark [2] stands for this setting: at 10 mg/kg, read-out: Plasma cholesterol.
Setting [3] is: at 10 mg/kg, read-out: Plasma triglycerides.

For the compound `CCOC(=O)C(C)(C)Oc1ccc(CCNc2nn(CCCC3CCCCC3)c(=O)n(CCCC(F)(F)F)c2=O)cc1` [Example 105, Ethyl 2-(4-{2-[2-(3-cyclohexyl-propyl)-3,5-dioxo-4-(4,4,4-trifluoro-butyl)-2,3,4,5-tetrahydro-[1,2,4]triazin-6-ylamino]-ethyl}-phenoxy)-2-methyl-propionate], the figures for the EC50 on human PPARα and on human PPARγ were 1000 to 3000 nM and approximately 10 µM, respectively.

As for `CCCCCCCn1c(=O)c(NCCCCc2cccc(OC(C)(C)C(=O)OCC)c2)nn(C/C=C/C(=O)OCC)c1=O` [Example 87, Ethyl 4-(6-{4-[3-(1-ethoxycarbonyl-1-methyl-ethoxy)-phenyl]-butylamino}-4-heptyl-3,5-dioxo-4,5-dihydro-3H-[1,2,4]triazin-2-yl)-but-2-enonate], the half-maximal effective concentration (EC50) was approximately 300 nM at human PPARα and 0.1 to 0.3 µM on human PPARγ.

As for `CCCCCCCn1nc(OCCOc2ccc(SC(C)(C)C(=O)OCC)cc2)c(=O)n(C)c1=O` [Example 38, Ethyl 2-{4-[2-(2-heptyl-4-methyl-3,5-dioxo-2,3,4,5-tetrahydro-[1,2,4]triazin-6-yloxy)-ethoxy]-phenylsulfanyl}-2-methyl-propionate], the EC50 on human PPARα is more than 10000 nM; on human PPARγ it was more than 10 µM.

`CCCCCCCn1nc(OCCCCOc2cccc(SC(C)(C)C(=O)OCC)c2)c(=O)n(C)c1=O` [Example 37, Ethyl 2-{3-[4-(2-heptyl-4-methyl-3,5-dioxo-2,3,4,5-tetrahydro-[1,2,4]triazin-6-yloxy)-butoxy]-phenylsulfanyl}-2-methyl-propionate]: the concentration for a half-maximal effect (EC50) at human PPARα is more than 10000 nM; at human PPARγ it was approximately 10 µM.

As for `CCCCCCCn1c(=O)c(NCCc2cccc(OC(C)(C)C(=O)OCC)c2)nn(C)c1=O` [Example 59, Ethyl 2-{3-[2-(4-heptyl-2-methyl-3,5-dioxo-2,3,4,5-tetrahydro-[1,2,4]triazin-6-ylamino)-ethyl]-phenoxy}-2-methyl-propionate], the change in vivo at 2.5 mg/kg in assay [1] (read-out: Plasma cholesterol) was -37%; in assay [1] (read-out: Plasma triglycerides), -13%. The EC50 at human PPARα lay within 1000 to 3000 nM.

Regarding `CCCCCCCn1nc(NCCCc2cccc(OC(C)(C)C(=O)OCC)c2)c(=O)n(CCCCCCC)c1=O` [Example 69, Ethyl 2-{3-[3-(2,4-diheptyl-3,5-dioxo-2,3,4,5-tetrahydro-[1,2,4]triazin-6-ylamino)-propyl]-phenoxy}-2-methyl-propionate], the figures for the EC50 on human PPARα and on human PPARγ were 1000 to 3000 nM and approximately 10 µM, respectively.

As for `CCCCCCCN(CCCOc1ccc(SC(C)(C)C(=O)OCC)cc1)c1nn(C)c(=O)n(C)c1=O` [Example 53, Ethyl 2-(4-{3-[(2,4-Dimethyl-3,5-dioxo-2,3,4,5-tetrahydro-[1,2,4]triazin-6-yl)-heptyl-amino]-propoxy}-phenylsulfanyl)-2-methyl-propionate], the change in vivo at 2.5 mg/kg in assay [1] (read-out: Plasma cholesterol) is -7%. Moreover, the change in vivo at 10 mg/kg in assay [1] (setting [2]) is -28%. In assay [1] (at 10 mg/kg), the Plasma triglycerides result was “inactive at 10”. At human PPARα, the concentration giving a half-maximal response (EC50) fell in the range of 1000 to 3000 nM.

`CCOC(=O)C(C)(C)Oc1ccc(CCCCOc2nn(C)c(=O)n(CCCC(F)(F)F)c2=O)cc1` [Example 30, Ethyl 2-methyl-2-(4-{4-[2-methyl-3,5-dioxo-4-(4,4,4-trifluoro-butyl)-2,3,4,5-tetrahydro-[1,2,4]triazin-6-yloxy]-butyl}-phenoxy)-propionate]: the EC50 on human PPARα is 30 to 100 nM; at human PPARγ, more than 10 µM.

For the compound `CCCCCCCn1c(=O)c(OCCCCCc2cccc(OC(C)(C)C(=O)OCC)c2)nn(Cc2ccccc2)c1=O` [Example 19, Ethyl 2-{3-[5-(2-benzyl-4-heptyl-3,5-dioxo-2,3,4,5-tetrahydro-[1,2,4]triazin-6-yloxy)-pentyl]-phenoxy}-2-methyl-propionate], the EC50 on human PPARα was approximately 3000 nM; at human PPARγ, 3 to 10 µM.

As for `CCCCCCCn1c(=O)c(NCCCCOc2ccc(OC(C)(C)C(=O)OCC)cc2)nn(C)c1=O` [Example 50, Ethyl 2-{4-[4-(4-heptyl-2-methyl-3,5-dioxo-2,3,4,5-tetrahydro-[1,2,4]triazin-6-ylamino)-butoxy]-phenoxy}-2-methyl-propionate], the EC50 was more than 10000 nM at human PPARα and approximately 10 µM on human PPARγ.

For the compound `CCOC(=O)C(C)(C)Oc1ccc(OCCCNc2nn(CCCC(F)(F)F)c(=O)n(C)c2=O)cc1` [Example 44, Ethyl 2-methyl-2-(4-{3-[4-methyl-3,5-dioxo-2-(4,4,4-trifluoro-butyl)-2,3,4,5-tetrahydro-[1,2,4]triazin-6-ylamino]-propoxy}-phenoxy)-propionate], the half-maximal effective concentration (EC50) at human PPARα is more than 10000 nM; on human PPARγ, 3 to 10 µM.

Take `CCCCCCCn1nc(NCCc2cccc(OC(C)(C)C(=O)OCC)c2)c(=O)n(C)c1=O` [Example 57, Ethyl 2-{3-[2-(2-heptyl-4-methyl-3,5-dioxo-2,3,4,5-tetrahydro-[1,2,4]triazin-6-ylamino)-ethyl]-phenoxy}-2-methyl-propionate]: the EC50 is approximately 3000 nM at human PPARα and 1 to 3 µM at human PPARγ.

As to `CCCCCCCn1c(=O)c(NCCCc2cccc(OC(C)(C)C(=O)OCC)c2)nn(Cc2ccccc2)c1=O` [Example 70, Ethyl 2-{3-[3-(2-benzyl-4-heptyl-3,5-dioxo-2,3,4,5-tetrahydro-[1,2,4]triazin-6-ylamino)-propyl]-phenoxy}-2-methyl-propionate], the concentration for a half-maximal effect (EC50) was approximately 1000 nM on human PPARα and approximately 10 µM at human PPARγ.

Turning to `CCCCCCCn1nc(OCCCOc2cccc(SC(C)(C)C(=O)OCC)c2)c(=O)n(C)c1=O` [Example 34, Ethyl 2-{3-[3-(2-heptyl-4-methyl-3,5-dioxo-2,3,4,5-tetrahydro-[1,2,4]triazin-6-yloxy)-propoxy]-phenylsulfanyl}-2-methyl-propionate], the EC50 at human PPARα was more than 10000 nM; at human PPARγ, more than 10 µM.

Consider `CCCCCCCn1nc(NCCCCc2cccc(SC(C)(C)C(=O)OCC)c2)c(=O)n(C)c1=O` [Example 94, Ethyl 2-{3-[4-(2-heptyl-4-methyl-3,5-dioxo-2,3,4,5-tetrahydro-[1,2,4]triazin-6-ylamino)-butyl]-phenylsulfanyl}-2-methyl-propionate], for which the EC50 fell in the range of 3000 to 10000 nM at human PPARα and 3 to 10 µM at human PPARγ.

With `CCCCCCCn1nc(NCCCCc2cccc(OC(C)(C)C(=O)OCC)c2)c(=O)n(Cc2ccccc2)c1=O` [Example 91, Ethyl 2-{3-[4-(4-benzyl-2-heptyl-3,5-dioxo-2,3,4,5-tetrahydro-[1,2,4]triazin-6-ylamino)-butyl]-phenoxy}-2-methyl-propionate], the EC50 at human PPARα is 300 to 1000 nM; at human PPARγ, 3 to 10 µM.

Take `CCCCCCCn1c(=O)c(NCCCc2cccc(OC(C)(C)C(=O)OCC)c2)nn(C)c1=O` [Example 67, Ethyl 2-{3-[3-(4-heptyl-2-methyl-3,5-dioxo-2,3,4,5-tetrahydro-[1,2,4]triazin-6-ylamino)-propyl]-phenoxy}-2-methyl-propionate]: the change in vivo at 10 mg/kg is -14% in assay [1] (setting [2]) and -23% in assay [1] (setting [3]). The compound also gave an EC50 at human PPARα of approximately 1000 nM.

With `CCOC(=O)C(C)(C)Oc1ccc(OCCCNc2nn(C)c(=O)n(CCCC(F)(F)F)c2=O)cc1` [Example 46, Ethyl 2-methyl-2-(4-{3-[2-methyl-3,5-dioxo-4-(4,4,4-trifluoro-butyl)-2,3,4,5-tetrahydro-[1,2,4]triazin-6-ylamino]-propoxy}-phenoxy)-propionate], the change in vivo at 10 mg/kg is -13% in assay [1] (setting [2]) and -32% in assay [1] (setting [3]). On human PPARα, this compound registered an EC50 of 300 to 1000 nM.

In the case of `CCOC(=O)C(C)(C)Oc1cccc(CCCNc2nn(CCCC(F)(F)F)c(=O)n(Cc3ccccc3)c2=O)c1` [Example 71, Ethyl 2-(3-{3-[4-benzyl-3,5-dioxo-2-(4,4,4-trifluoro-butyl)-2,3,4,5-tetrahydro-[1,2,4]triazin-6-ylamino]-propyl}-phenoxy)-2-methyl-propionate], the EC50 on human PPARα was approximately 1000 nM.

Consider `CCCCCCCn1nc(OCCc2ccc(OC(C)(C)C(=O)OCC)cc2)c(=O)n(C)c1=O` [Example 25, Ethyl 2-{4-[2-(2-heptyl-4-methyl-3,5-dioxo-2,3,4,5-tetrahydro-[1,2,4]triazin-6-yloxy)-ethyl]-phenoxy}-2-methyl-propionate], for which the EC50 on human PPARγ was more than 10 µM.

In turn, `CCOC(=O)C(C)(C)Oc1ccc(CCCCOc2nn(CCCC(F)(F)F)c(=O)n(C)c2=O)cc1` [Example 28, Ethyl 2-methyl-2-(4-{4-[4-methyl-3,5-dioxo-2-(4,4,4-trifluoro-butyl)-2,3,4,5-tetrahydro-[1,2,4]triazin-6-yloxy]-butyl}-phenoxy)-propionate] showed an EC50 on human PPARα of approximately 10000 nM.

At human PPARα, `CCCCCCCn1nc(NCCc2ccc(OC(C)(C)C(=O)OCC)cc2)c(=O)n(CCCCCCC)c1=O` [Example 108, Ethyl 2-{4-[2-(2,4-diheptyl-3,5-dioxo-2,3,4,5-tetrahydro-[1,2,4]triazin-6-ylamino)-ethyl]-phenoxy}-2-methyl-propionate] had an EC50 of more than 10000 nM.
